From patent US20210169984A1, “SENSITIZING CANCER TO DEATH RECEPTOR AGONISTS WITH KINASE INHIBITORS” (The Johns Hopkins University, priority 2016, published 2021)
Entries after “also recorded” stand apart in the source; their conditions may differ.

Assays:
[1] = system: DU-145 prostate adenocarcinoma cells; assay: KI library screen for TRAIL sensitization; type: cell-based, human
Excerpt: (§1) A library of KIs was screened for TRAIL sensitization in various TRAIL-resistant cancer cells, including: HT29 (CRC), MDA-MB-231 (breast), LNCAP (prostate), DU145 (prostate), PC3 (prostate) and A549 (lung). […] The 355 KIs comprised of compounds targeting diverse kinases, including multi kinases, RTK (receptor kinase tyrosine), PI3K (phosphinistide 3-kinase), aurora kinases, including […] (mitogen-activated protein kinase). […] The interaction between KIs and TRAIL had been previously explored in vitro with the tyrosine KI sorafenib, a drug similar to regorafenib. However, such studies were mostly performed on cellular levels and not in in vivo models, combined with systemically administered recombinant TRAIL. Although a similar structure, regorafenib was newly approved in 2012. The interactions between the three other selected KIs and TRAIL have not been previously reported, in vitro or in vivo.

[2] = mouse, in vivo; cited from earlier work
[3] = system: MDA-MB-231 breast cancer cells; assay: KI library screen for TRAIL sensitization; type: cell-based, human
Excerpt: as §1

[4] = system: HP LNCAP prostate adenocarcinoma cells; assay: KI library screen for TRAIL sensitization; type: cell-based, human
Excerpt: as §1
(§2) Regorafenib potentiated TRAIL-induced apoptosis in prostate cancer cells (LNCAP, HPLNCAP (High Passages LNCAP), DU-145 and PC-3) when combined with TRAILPEG (1 μg/mL) (FIG. 5). After treating cells with regorafenib (5 μM), caspases and anti-apoptotic proteins were analyzed by western blotting (FIG. 6A-FIG. 6C). […] Data confirmed that FDA-approved KIs or KIs under clinical development synergized with long-acting TRAILPEG by overcoming TRAIL-resistance through unique TRAIL sensitization mechanisms.

[5] = system: A549 lung carcinoma cells; assay: KI library screen for TRAIL sensitization; type: cell-based, human
Excerpt: as §1

[6] = system: PC3 prostate adenocarcinoma cells; assay: KI library screen for TRAIL sensitization; type: cell-based, human
Protocol: FIG. 2B depicts a bar graph showing quantified cell death after analyzing synergized cell death induced by TRAILPEG (1 μg/mL for 3 hr) and kinase inhibitors (KIs) in HT29 (human colon tumor cell line) and PC3 (human prostate tumor cell line) cells individually pretreated with selected 355 KIs. Relative cell death rates were calculated by [KI+TRAILPEG]/[KI alone] after separate MTT assays. The arrows indicate KIs with >60% cell death; n=3.
as §1

[7] = system: LNCAP prostate adenocarcinoma cells; assay: KI library screen for TRAIL sensitization; type: cell-based, human
Excerpt: as §1

[8] = system: prostate cancer cells (LNCAP, DU145, PC-3); assay: Western blot of prostate cancer cells, regorafenib alone or with TRAILPEG (FIG. 6A-6C); type: cell-based, human
Protocol: (§3) FIG. 5 depicts a bar graph showing results of tumor volumes in mice bearing TRAIL-resistant HT29 tumors treated with three rounds of TRAILPEG (150 μg, i.v), oral regorafenib (10 mg/kg) or oral regorafenib with TRAILPEG within days (12-17) after tumor inoculation. Mice were sacrificed on day 27. […] FIG. 6A depicts a Western blot analysis of LNCAP prostate cancer cells with regorafenib alone or in combination with TRAILPEG.
FIG. 6B depicts a Western blot analysis of DU145 prostate cancer cells with regorafenib alone or in combination with TRAILPEG.
FIG. 6C depicts a Western blot analysis of PC-3 prostate cancer cells with regorafenib alone or in combination with TRAILPEG.
as §2

[9] = system: HT-29 cells; assay: Quantified cell death after combinatorial treatment with regorafenib and TRAILPEG (FIG. 3A); type: cell-based, human; conditions: regorafenib combined with TRAILPEG 1 μg/mL
Protocol: FIG. 3A depicts a bar graph showing that regorafenib (an oral, multi-kinase inhibitor) enhanced TRAILPEG -induced apoptosis in colorectal cancer (CRC) cells. Quantified cell death after combinatorial treatment with regorafenib and TRAILPEG (1 μg/mL) in HT-29 cells is shown.
as §2, with “HT-29” for “prostate cancer”, “cells” for “cells (LNCAP, HPLNCAP (High Passages LNCAP), DU-145 and PC-3)”, “3A).” for “5).”, “(2” for “(5”, “3B).” for “6A-FIG. 6C).”

[10] = system: HT29 xenografts; assay: TRAIL-resistant HT29 tumor xenograft; type: in vivo; conditions: oral regorafenib 10 mg/kg days 12, 14, 16; TRAILPEG 150 μg i.v. days 13, 15, 17; sacrifice day 27
Protocol: as §3
The therapeutic combination of oral regorafenib and TRAILPEG in HT29 xenografts in comparison to regorafenib and TRAILPEG alone (FIG. 7) were investigated. HT29 xenografts were treated with oral regorafenib (10 mg/kg) or saline on the 12th, 14th, and 16th days of tumor inoculation. On the 13th, 15th, and 17th days, animals were given an i.v. dose of TRAILPEG (150 μg). Animals were sacrificed on day 27.

[11] = system: HT29 cells; assay: qPCR of death receptors and decoy receptors (FIG. 4A); type: cell-based, human; conditions: regorafenib 2 μM
Protocol: FIG. 4A depicts a bar graph showing qPCR analysis of death receptors (DRs) and decoy receptors (DcRs) in HT29 cells treated with regorafenib for 24 hours or 48 hours as indicated; *P<0.05, **P<0.01, ***P<0.001 versus control.
(§4) HT29 cells were treated with regorafenib (2 μM) for 24 hour or 48 hour as indicated. mRNAs for TRAIL receptors were measured by quantitative RT-PCR (qPCR) (FIG. 4A). […] After treating HT29 cells with regorafenib as indicated, DR4/5 or anti-apoptotic proteins were analyzed by Western blot (FIG. 4B). […] Conversely, anti-apoptotic proteins MCL-1 and BCL-2 were absent in HT29 cells treated with regorafenib for 48 hours. It has been previously reported that TRAIL receptors could be induced by signaling including NF-κB, ER stress, and JNK-ROS.

[12] = system: prostate cancer cells (LNCAP, HPLNCAP, DU-145 and PC-3); assay: Quantified cell death after regorafenib and TRAILPEG in prostate cancer cells; type: cell-based, human; conditions: regorafenib 5 μM combined with TRAILPEG 1 μg/mL
Protocol: FIG. 7 is a bar graph showing that regorafenib enhanced TRAILPEG-induced apoptosis in prostate cancer cells. Quantified cell death after combinatorial treatment with regorafenib (5 μM) and TRAILPEG (1 μg/mL) in various prostate cancer cells is shown. *P<0.05, **P<0.01, ***P<0.001 versus control (regorafenib only).
as §2

[13] = system: HT29 (CRC) cells; assay: KI library screen for TRAIL sensitization (KI pretreatment, then TRAILPEG; MTT cell death assay); type: cell-based, human
Protocol: The screening is performed using an MTT cell death assay in CRC cells with different TRAIL sensitivities.

[14] = system: HT29 cells; assay: Western blot of DR4/5 and anti-apoptotic proteins (FIG. 4B); type: cell-based, human; conditions: regorafenib, 48 hours
Protocol: as §4

[15] = system: HT29 cells; assay: Western blot of caspases and anti-apoptotic proteins, regorafenib alone or with TRAILPEG (FIG. 3B); type: cell-based, human
Protocol: FIG. 3B depicts a Western blot analysis of HT29 cells with regorafenib alone or in combination with TRAILPEG.
as §2, with “HT-29” for “prostate cancer”, “cells” for “cells (LNCAP, HPLNCAP (High Passages LNCAP), DU-145 and PC-3)”, “3A).” for “5).”, “(2” for “(5”, “3B).” for “6A-FIG. 6C).”

[16] = regorafenib 5 μM combined with TRAILPEG

## CCOc1cc2ncc(C#N)c(Nc3ccc(OCc4ccccn4)c(Cl)c3)c2cc1NC(=O)/C=C/CN(C)C [Neratinib (HKI-272), Neratinib]
[1]
  KIs that sensitize cancer cells to TRAIL-based agents: Example KIs that sensitize cancer cells to TRAIL-based agents.

## 2K-PEG-TRAIL: TRAIL derivatized with 2K PEG (Kim, et al.)
[2]
  circulating half-life: 3.9 h

## COc1cc2ncnc(Nc3ccc(F)c(Cl)c3)c2cc1NC(=O)/C=C/CN1CCCCC1 [Dacomitinib (PF299804, PF299), Dacomitinib]
[3]
  KIs that sensitize cancer cells to TRAIL-based agents: Example KIs that sensitize cancer cells to TRAIL-based agents.
[1]
  KIs that sensitize cancer cells to TRAIL-based agents: Example KIs that sensitize cancer cells to TRAIL-based agents.

## 20K-PEG-TRAIL: TRAIL derivatized with 20K PEG (Kim, et al.)
[2]
  circulating half-life: 12.3 h

## C=CC(=O)Nc1cccc(Oc2nc(Nc3ccc(N4CCN(C)CC4)cc3OC)ncc2Cl)c1 [WZ4002]
[4]
  KIs that sensitize cancer cells to TRAIL-based agents: Example KIs that sensitize cancer cells to TRAIL-based agents.
[5]
  KIs that sensitize cancer cells to TRAIL-based agents: Example KIs that sensitize cancer cells to TRAIL-based agents.

## COc1cc2c(Oc3ccc(NC(=O)C4(C(=O)Nc5ccc(F)cc5)CC4)cc3F)ccnc2cc1OCCCN1CCOCC1 [Foretinib (GSK1363089), Foretinib]
[1]
  KIs that sensitize cancer cells to TRAIL-based agents: Example KIs that sensitize cancer cells to TRAIL-based agents.

## COc1cc2nccc(Oc3ccc(NC(=O)NC4CC4)c(Cl)c3)c2cc1C(N)=O [Lenvatinib (E7080), Lenvatinib]
[4]
  KIs that sensitize cancer cells to TRAIL-based agents: Example KIs that sensitize cancer cells to TRAIL-based agents.

## C=CC(=O)Nc1ccc2ncnc(Nc3ccc(OCc4cccc(F)c4)c(Cl)c3)c2c1 [AST-1306]
[6]
  KIs that sensitize cancer cells to TRAIL-based agents: Example KIs that sensitize cancer cells to TRAIL-based agents.
[1]
  KIs that sensitize cancer cells to TRAIL-based agents: Example KIs that sensitize cancer cells to TRAIL-based agents.

## C=CC(=O)Nc1ccc2ncnc(Nc3cccc(Br)c3)c2c1 [PD168393]
[4]
  KIs that sensitize cancer cells to TRAIL-based agents: Example KIs that sensitize cancer cells to TRAIL-based agents.

## COCCOc1ccc2c(c1)ncn2-c1ccc2cccc(N3CCC(N)CC3)c2n1 [CP-673451]
[6]
  KIs that sensitize cancer cells to TRAIL-based agents: Example KIs that sensitize cancer cells to TRAIL-based agents.
[5]
  KIs that sensitize cancer cells to TRAIL-based agents: Example KIs that sensitize cancer cells to TRAIL-based agents.

## COc1cc(N2CCC(N)CC2)ccc1Nc1ncc(Cl)c(-c2c[nH]c3ccccc23)n1 [AZD3463]
[6]
  KIs that sensitize cancer cells to TRAIL-based agents: Example KIs that sensitize cancer cells to TRAIL-based agents.
[1]
  KIs that sensitize cancer cells to TRAIL-based agents: Example KIs that sensitize cancer cells to TRAIL-based agents.

## 5K-PEG-TRAIL: TRAIL derivatized with 5K PEG (Kim, et al.)
[2]
  circulating half-life: 5.3 h

## Cn1cc(-c2ccc3nnc(Sc4ccc5ncccc5c4)n3n2)cn1 [SGX-523]
[4]
  KIs that sensitize cancer cells to TRAIL-based agents: Example KIs that sensitize cancer cells to TRAIL-based agents.
[7]
  KIs that sensitize cancer cells to TRAIL-based agents: Example KIs that sensitize cancer cells to TRAIL-based agents.

## 30K-PEG-TRAIL: TRAIL derivatized with 30K PEG (Kim, et al.)
[2]
  circulating half-life: 17.7 h

## CNC(=O)c1cc(Oc2ccc(NC(=O)Nc3ccc(Cl)c(C(F)(F)F)c3)c(F)c2)ccn1 [Regorafenib (BAY 73-4506), Regorafenib]
[8]; [16]
  anti-apoptotic protein MCL-1: downregulated
  caspase-dependent TRAILPEG-induced apoptosis (PARP-1 cleavage, caspase activation): significantly sensitized
[8]; regorafenib or TRAILPEG alone
  apoptosis by single agent: did not induce strong apoptosis
[9]; listed as Regorafenib
  TRAIL-induced apoptosis: potentiated
[9]; listed as regorafenib
  TRAIL-induced apoptosis: enhanced
[10]
  tumor growth / tumor volume: moderate tumor reduction
[6]
  KIs that sensitize cancer cells to TRAIL-based agents: Example KIs that sensitize cancer cells to TRAIL-based agents.
[11]; 24 or 48 hour
  DR4 mRNA: significantly upregulate; also recorded: upregulated
  DRS mRNA: minimally induced
[11]; 48 hour
  DcR2 expression: down-regulating; also recorded: rarely detectable
[4]
  KIs that sensitize cancer cells to TRAIL-based agents: Example KIs that sensitize cancer cells to TRAIL-based agents.
[12]; listed as Regorafenib
  TRAIL-induced apoptosis: potentiated
[12]; listed as regorafenib
  TRAIL-induced apoptosis: enhanced
[13]; HT29 cells pretreated with KI for 24 hours before TRAILPEG
  efficacy when combined with TRAILPEG (relative cell death, KI+TRAILPEG / KI alone): synergistic efficacy
[13]; HT-29 colorectal adenocarcinoma
  KIs that sensitize cancer cells to TRAIL-based agents: Example KIs that sensitize cancer cells to TRAIL-based agents.
[14]; listed as Regorafenib
  DR4 protein: highly expressed
[14]; listed as regorafenib
  DR4 protein: up-regulation
  anti-apoptotic proteins MCL-1 and BCL-2: absent; also recorded: down-regulated
[15]
  RIP-1: dose-dependently downregulated
[15]; regorafenib 2 μM
  anti-apoptotic proteins c-FLIP, MCL-1, BCL-2, and BCL-XL: downregulated
  caspase-dependent TRAILPEG-induced apoptosis (PARP-1 cleavage, caspase activation): significantly sensitized

## 10K-PEG-TRAIL: TRAIL derivatized with 10K PEG (Kim, et al.)
[2]
  circulating half-life: 6.2 h

## CC(C)(C)c1cc(C=C(C#N)C#N)cc(C(C)(C)C)c1O [Tyrphostin 9]
[6]
  KIs that sensitize cancer cells to TRAIL-based agents: Example KIs that sensitize cancer cells to TRAIL-based agents.
[4]
  KIs that sensitize cancer cells to TRAIL-based agents: Example KIs that sensitize cancer cells to TRAIL-based agents.
[7]
  KIs that sensitize cancer cells to TRAIL-based agents: Example KIs that sensitize cancer cells to TRAIL-based agents.
[1]
  KIs that sensitize cancer cells to TRAIL-based agents: Example KIs that sensitize cancer cells to TRAIL-based agents.
